Data reported in article PMC5653977 (EMBO Molecular Medicine, 2017).
Read-outs that look alike come from different tables or passages of the source.

Experiments:
EGFR dimers = EGFR dimers (Homo sapiens, UniProt P00533); assay: ERBB dimerization split TEV assay EGFR/EGFR; format: cell-based
Source text: (§1) Gateway recombination cloning (Life Technologies) was applied for generating plasmids. Each ORF cloned was PCR‐amplified using the Pwo proofreading DNA polymerase (Roche) and BP‐recombined into the pDONR/Zeo plasmid (Life Technologies) to yield an entry vector, which was control‐digested using BsrGI to release the insert, and sequence‐verified. The following human ORFs were cloned using cDNA image clones ordered from Source BioScience: ERBB4 transcript variant JM‐a/CYT‐1 (Accession: BC112199), PIK3R1 (BC094795), GRB2 transcript variant 1 (BC000631), SHC1 transcript variant 2 (BC014158), STAT5A (BC027036), and SRC transcription variant 1 (BC051270). For EGFR, ERBB2, and ERBB3, entry vectors were obtained from the human CCSB kinase collection available from Addgene (Johannessen et al, 2010). Entry vectors were LR‐recombined into split TEV destination vectors [either pcDNA_attR1‐ORF‐attR2‐NTEV‐tevS‐GV‐2xHA_DEST or pTag4C_attR1‐ORF‐attR2‐CTEV‐2xHA_DEST, plasmids were described in detail before (Wehr et al, 2006)] to yield expression vectors, which were control‐digested using BsrGI. The plasmids for Nrg1 type I β1a and rat Nrg1 type III β1a have been described before (Wehr et al, 2006).

[1] = molecular target: ERBB2-NTEV-tevS-GV + ERBB3-CTEV (Homo sapiens, UniProt P04626+P21860); assay: ERBB dimerization split TEV assay ERBB2/ERBB3; format: cell-based; details: 10 ng/ml EGFld
Source text: as §1

ERBB4 = ERBB4 (Homo sapiens, UniProt Q15303); assay: Western blot of ERBB4 phosphorylation in transfected PC12 cells; format: cell-based; details: PC12 cells transfected with ERBB4-NTEV-tevS-GV, 10 ng/ml EGFld, 10 μM, 1 h
Protocol: After 24 h of expression, cells were treated as indicated and lysed in a 1% Triton‐X lysis buffer (50 mM Tris [pH 7.5], 150 mM NaCl, 1% Triton X‐100, 1 mM EGTA) supplemented with 10 mM NaF, 1 mM […], 1 mM ZnCl2 4.5 mM Na4P20_7, as phosphatase inhibitors, and the complete protease inhibitor cocktail (Roche).
(§2) Each blot was replicated two times.

AKT = assay: Western blot of pAKT in prefrontal cortex of spironolactone-treated mice; format: in vivo, mouse; details: Nrg1-tg and wt mice, 50 mg/kg s.c. daily for 21 days, prefrontal cortex lysates
Protocol: For the generation of lysates, the isolated tissue was immediately placed into cooled (4°C) sucrose buffer (320 mM sucrose, 10 mM Tris–HCl, 1 mM NaHCO3, 1 mM MgCl2, supplemented with 10 mM NaF, 1 mM […], 1 mM ZnCl2, 4.5 mM Na4P20_7 as phosphatase inhibitors, and the complete protease inhibitor cocktail (Roche)), homogenized using an ultra‐turrax (IKA GmbH, Staufen, Germany), sonicated (3 pulses for 10 s), and denatured for 10 min at 70°C in LDS sample buffer.
as §2
(§3) Treatment was continued throughout the behavioral analysis period. To avoid injection‐induced stress prior to behavioral testing, mice were injected in the afternoon, after the entire cohort has completed the behavioral paradigm.

[2] = test system: pyramidal neurons of the prefrontal cortex; assay: Spontaneous inhibitory postsynaptic currents (sIPSCs) in acute prefrontal cortex slices; format: cell-based, mouse; details: 10 μM, bath application
Protocol: 300‐μm‐thick transverse slices comprising the medial prefrontal cortex (mPFC) area were prepared from 7‐ to 8‐week‐old C57Bl/6 mice as described previously (Teng et al, 2013; Agarwal et al, 2014). All recordings were performed in cortical layer V projection neurons. The bath solution consisted of oxygenated artificial cerebrospinal fluid (ACSF) containing NaCl 126 mM, KCl 3 mM, NaH2PO4 1.25 mM, MgSO4 1 mM, NaHCO3 26 mM, CaCl2 2 mM, glucose 10 mM, and the pH 7.2 adjusted with NaOH. Spontaneous GABAergic inhibitory postsynaptic currents (sIPSC) and evoked GABAergic inhibitory postsynaptic currents (eIPSC) were recorded at a holding potential of −70 mV in the presence of 6‐cyano‐7‐nitroquinoxaline‐2,3‐dione (CNQX, 10 μM) and DL‐2‐amino‐5‐phosphonovaleric acid (D‐APV, 50 μM). Glass pipettes were filled with the solution containing: KCl 140 mM, MgCl2 2 mM, CaCl2 1 mM, Na2GTP 0.5 mM, Na2ATP 4 mM, EGTA 10 mM, HEPES 10 mM. Patches with a series resistance of > 25 MΩ, a membrane resistance of < 0.8 GΩ, or leak currents of > 150 pA were excluded. Biphasic rectangular electric pulses (10 ms, 100–300 μA) were applied to layer I of the prelimbic area of mPFC through another glass pipette filled with ACSF. Synaptic currents were acquired at 20 kHz and filtered at 6 kHz, with a Digidata 1440 ADC‐converter coupled to a Multiclamp 700B amplifier (Molecular Devices, USA). Data acquisition was performed using pClamp10 software (Molecular Devices). MiniAnalysis 6.0.9 (Synaptosoft Inc., Decatur, USA) and pClamp10.1 were used for amplitude and frequency analysis of sIPSCs and eIPSCs, respectively. Paired Student's t‐test was used for statistical analysis.

Nrg1-tg and wt mice = assay: Open field test; format: in vivo, mouse; details: 50 mg/kg s.c. daily
Protocol: For behavioral testing, age‐matched male mice (8–16 weeks) on C57Bl/6 background that constitutively overexpress the 2xHA‐tagged Nrg1 type III β1a isoform (Nrg1‐tg) under the control of the mouse Thy1.2 promoter (Velanac et al, 2012) and their wild‐type (wt) littermates as controls were used. Animals were group‐housed in the same ventilated sound‐attenuated rooms under a 12‐h light/12‐h dark schedule (lights on at 8:00 am) at an ambient temperature of 21°C with food and water available ad libitum. One week prior to experiments, mice were separated into single cages and habituated to the experimental rooms. To minimize the influence of the circadian rhythm on drug actions, the treatment groups were analyzed at balanced time points during the light phase. […] All animal experiments were conducted in accordance with NIH principles of laboratory animal care and were approved by the Government of Lower Saxony, Germany, in accordance with the German Animal Protection Law.
as §3
Spontaneous locomotor activity was verified in the open‐field test using a Plexiglas box (45 × 45 × 55 cm). The same test arena was modified with a floor insert containing 16 symmetrically allocated holes for the hole board test. During a 10‐min testing session, mouse behavior was monitored by infrared sensors and recorded by the ActiMot software (TSE, Bad Homburg, Germany). Levels of urination (scored in events) and defecation (scored as feci in events) were determined manually during the open‐field test.

EGFR dimers, sequence (P00533 25-1210): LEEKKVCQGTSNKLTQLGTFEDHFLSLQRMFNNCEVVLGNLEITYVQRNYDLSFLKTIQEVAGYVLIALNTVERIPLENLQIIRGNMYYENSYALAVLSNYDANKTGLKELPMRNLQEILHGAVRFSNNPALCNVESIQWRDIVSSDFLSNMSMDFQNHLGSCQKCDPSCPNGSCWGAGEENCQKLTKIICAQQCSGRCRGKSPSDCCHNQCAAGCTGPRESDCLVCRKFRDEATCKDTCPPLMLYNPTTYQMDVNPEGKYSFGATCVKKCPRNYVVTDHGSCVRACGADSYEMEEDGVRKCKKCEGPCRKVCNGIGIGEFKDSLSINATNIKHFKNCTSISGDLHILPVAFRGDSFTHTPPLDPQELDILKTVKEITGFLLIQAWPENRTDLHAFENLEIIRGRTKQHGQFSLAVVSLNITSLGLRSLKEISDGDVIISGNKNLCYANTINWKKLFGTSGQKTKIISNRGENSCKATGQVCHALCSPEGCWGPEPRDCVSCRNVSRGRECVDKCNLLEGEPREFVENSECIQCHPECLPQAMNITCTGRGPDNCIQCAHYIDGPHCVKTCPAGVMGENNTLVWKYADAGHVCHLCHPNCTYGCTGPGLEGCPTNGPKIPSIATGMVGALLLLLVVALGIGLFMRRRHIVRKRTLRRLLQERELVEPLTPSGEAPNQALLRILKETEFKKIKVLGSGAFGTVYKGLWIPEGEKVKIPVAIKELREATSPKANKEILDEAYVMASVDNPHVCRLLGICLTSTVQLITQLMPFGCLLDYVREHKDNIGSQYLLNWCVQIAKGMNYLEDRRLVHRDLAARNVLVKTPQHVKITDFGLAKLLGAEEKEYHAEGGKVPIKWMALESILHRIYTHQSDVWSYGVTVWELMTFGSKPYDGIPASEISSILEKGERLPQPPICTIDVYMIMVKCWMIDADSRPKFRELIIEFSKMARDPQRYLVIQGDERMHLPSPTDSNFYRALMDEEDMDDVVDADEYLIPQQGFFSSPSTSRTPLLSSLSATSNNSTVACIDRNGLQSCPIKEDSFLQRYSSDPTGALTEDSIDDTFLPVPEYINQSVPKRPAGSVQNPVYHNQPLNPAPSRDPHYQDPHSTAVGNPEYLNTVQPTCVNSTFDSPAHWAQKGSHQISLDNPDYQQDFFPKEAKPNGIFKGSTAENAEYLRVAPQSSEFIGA
EGFR dimers, sequence (P00533 25-1210): as above
ERBB4, sequence (Q15303 26-1308): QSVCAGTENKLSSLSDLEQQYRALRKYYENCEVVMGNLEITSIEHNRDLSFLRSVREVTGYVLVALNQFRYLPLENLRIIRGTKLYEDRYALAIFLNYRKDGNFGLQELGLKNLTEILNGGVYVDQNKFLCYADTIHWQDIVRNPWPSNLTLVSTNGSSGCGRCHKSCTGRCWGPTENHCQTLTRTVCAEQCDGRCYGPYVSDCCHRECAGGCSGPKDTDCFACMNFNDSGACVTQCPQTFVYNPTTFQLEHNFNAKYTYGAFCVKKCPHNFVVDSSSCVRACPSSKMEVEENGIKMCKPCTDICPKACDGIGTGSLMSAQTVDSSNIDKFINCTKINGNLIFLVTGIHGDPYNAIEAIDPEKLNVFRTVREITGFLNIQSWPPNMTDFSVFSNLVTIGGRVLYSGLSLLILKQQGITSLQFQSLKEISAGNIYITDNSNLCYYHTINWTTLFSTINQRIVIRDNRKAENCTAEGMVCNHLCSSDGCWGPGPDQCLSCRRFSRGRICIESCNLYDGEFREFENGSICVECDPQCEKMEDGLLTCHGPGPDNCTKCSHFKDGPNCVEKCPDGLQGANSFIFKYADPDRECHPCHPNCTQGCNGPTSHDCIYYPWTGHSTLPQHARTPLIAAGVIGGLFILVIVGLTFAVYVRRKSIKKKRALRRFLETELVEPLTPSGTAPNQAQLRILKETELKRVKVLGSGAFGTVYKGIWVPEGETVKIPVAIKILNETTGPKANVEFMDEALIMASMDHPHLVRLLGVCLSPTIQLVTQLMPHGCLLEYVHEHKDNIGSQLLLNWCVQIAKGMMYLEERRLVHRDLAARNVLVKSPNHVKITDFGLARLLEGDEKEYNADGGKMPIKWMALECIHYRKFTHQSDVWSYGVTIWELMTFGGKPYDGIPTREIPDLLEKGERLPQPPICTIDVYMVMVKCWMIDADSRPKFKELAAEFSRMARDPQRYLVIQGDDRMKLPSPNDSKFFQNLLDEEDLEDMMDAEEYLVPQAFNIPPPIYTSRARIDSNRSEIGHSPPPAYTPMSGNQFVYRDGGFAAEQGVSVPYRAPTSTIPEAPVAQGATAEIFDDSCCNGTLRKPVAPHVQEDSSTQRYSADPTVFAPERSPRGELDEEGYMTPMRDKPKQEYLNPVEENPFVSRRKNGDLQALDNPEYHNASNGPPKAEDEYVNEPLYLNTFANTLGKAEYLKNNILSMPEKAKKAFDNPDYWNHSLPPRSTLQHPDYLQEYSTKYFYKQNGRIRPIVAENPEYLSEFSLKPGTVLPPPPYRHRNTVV

CC(=O)S[C@@H]1CC2=CC(=O)CC[C@]2(C)[C@H]2CC[C@@]3(C)[C@@H](CC[C@@]34CCC(=O)O4)[C@H]12 [Spironolactone]
IC50 (EGFR dimers; 100 ng/ml EGF as stimulus, read-out: IC50, EGFR dimers, stimulus EGF): 1.74 µM | IC50 (EGFR dimers; PC12 cells, 10 ng/ml EGFld, read-out: IC50, EGFR-NTEV-tevS-GV + EGFR-CTEV): 8.5 µM | IC50 [1]: 9.23 µM | ERBB4 phosphorylation levels at Tyr1056 (ERBB4): reduces but not abolishes the phosphorylation levels | pAKT (downstream signaling) (AKT): neither modulated by Nrg1 overexpression, nor by spironolactone treatment | sIPSC amplitude [2]: increase | sIPSC frequency [2]: increase | defecation in the open-field test (Nrg1-tg and wt mice): no effect of treatment observed | time in the center of the open-field arena (Nrg1-tg and wt mice): did not influence this parameter | urination in the open-field test (Nrg1-tg and wt mice): without effect of treatment | locomotor hyperactivity (distance in the open-field arena) (Nrg1-tg and wt mice; Nrg1-tg mice): reverted
